Counter-ions that a name gives are not always drawn. Like-named read-outs stand apart in the source and are kept apart here.
Legend:
3T3 cells = assay: Cytotoxicity in 3T3 cells (CCK-8, 24 h); format: cell-based; details: for 3T3 cytotoxicity at 100 μM ("100 μM result in x%"): NT=not toxic
Protocol: (§1) H9c2 (ATCC®R-1446™) cells Were used in the studies. The H9c2 cells were maintained in DMEM (Dulbeccoa's Modified Eagle's Medium) supplemented with 10% fetal bovine serum (Mid Sci; S01520HI) and 1% penicillin-streptomycin (Sigma-Aldrich; P4333) at 37° C. with 5% CO2. The H9c2 cells were seeded in 96-well plate one day before the experiment. Different concentrations of di-amidine compounds were added into the H9c2 cells. The cells were then incubated with the compounds for 24 h at 37° C. with 5% CO2. The cell viability was tested by the CCK-8. Specifically, after 24 h incubation, 10 μL CCK-8 was added to each well. After 3 h incubation at 37° C., the absorbance at 450 nm was recorded by a plate reader. The cytoxicity in HEK293 and 3T3 cells was measured using the same procedure. Data is shown in Table 5 (NT=not toxic; --=not tested).

HEK293 cells = assay: Cytotoxicity in HEK293 cells (CCK-8, 24 h); format: cell-based; details: for HEK293 cytotoxicity at 100 μM ("100 μM result in x%"): NT=not toxic
Protocol: as §1

[1] = Lipid A binding assay using Dansyl-PMBN displacement on E. coli; set-up: species or system Escherichia coli; details: 10 μM Dansyl-PMBN on E. coli, gradual addition of compound
Protocol: FIG. 21 is a graph describing the in vivo lipid A binding assay using Dansyl-PMBN as described in Example 11. Dansyl-PMBN (10 μM) was added to E. coli (OD600 measurement of about 0.5) and the fluorescent intensity at this time was recorded as F0. Sensitizers (Compound C, Compound E-20, and Polymyxin B) were added gradually and the fluorescent intensity was recorded 30 seconds later to determine the fluorescent intensity as a percent. The x-axis is concentration of the sensitizers measured in μM and the y-axis is the fluorescent intensity measured as a percent.
Lipid A is a key component of the outer membrane of Gram-negative bacteria and is responsible for maintaining its integrity of the outer membrane. The binding affinity of the compounds of the present invention to Lipid A was measured following literature procedures using a fluorescent conjugate of a polymyxin-B derivative (Dansyl-PMBN). Dansyl-PMBN binds to the lipid A part of LPS and leads to increased fluorescent intensity. […] When 10 μM of Dansyl-PMBN was added to E. coli stock (OD600 measurement around 0.5), the fluorescent intensity increased 10-fold.

E. coli and MRSA = assay: Relative ratio of E. coli and MRSA under trovafloxacin with/without Compound A-8; format: cell-based, Escherichia coli; Staphylococcus aureus; details: trovafloxacin (16 ng/ml) alone
Description: FIG. 23A is a comparison of the relative ratio of E. coli and MRSA treated with the antibiotic trovafloxacin in the absence (pie chart on the left) and in the presence (pie chart on the right) of Compound A-8 as described in Example 14. In the absence of Compound A-8, trovafloxacin preferred to inhibit E. coli and the bacterial population was 78% MRSA. However, Compound A-8 sensitizes trovafloxacin to MRSA.
As a proof of concept, the relative ratio of E. coli and MRSA (FIG. 23A) or B. subtilis and MRSA (FIG. 23 B) was measured with and without Compound A-8. […] However, when trovafloxacin (8 ng/ml) is supplied with 1.5 μg/ml of Compound A-8, MRSA inhibition was achieved and E. coli was the dominant species (89% of the bacteria population).

wild-type E. coli = assay: Sensitization of wild-type E. coli toward antibiotics (MIC of antibiotic with/without sensitizer); format: cell-based, Escherichia coli; details: for MIC: Escherichia coli
Protocol: Bacteria were cultured with the antibiotic at various concentrations in the presence or absence of bacterial sensitizer for 24 hours at 37° C. Bacterial growth density was determined by measuring OD600 (absorbance measured at a wavelength of 600 nm). […]
The formula for calculating FIC is shown below: […]

[2] = system: NDM-1 over-expressing E. coli; assay: microbe, parasite or virus in culture; format: cell-based, Escherichia coli
wild type B. subtilis [3] = assay: Sensitization of B. subtilis toward antibiotics (MIC, OD600, 24 h); format: cell-based, Bacillus subtilis; details: compound at 10 μg/ml
Protocol: (§2) FIG. 22A is a bar graph showing that Compound M-1 sensitizes B. subtilis towards rifampicin as described in Example 13. Bacteria was cultured with rifampicin at various concentrations in the presence or absence of Compound M-1 for 24 hours at 37° C. and bacterial growth density was determined by measuring OD600. The y-axis is growth density measured in percent. The x-axis is rifampicin concentration measured in micrograms per milliliter (***: p<0.01).
Compound M-1 can sensitize Gram-positive bacteria such as B. subtilis towards traditional antibiotics. […] The sensitization fold is 32-fold for Compound M-1 and the FIC index is 0.14.

MRSA = assay: Sensitization of MRSA toward antibiotics (OD600, 24 h); format: cell-based, Staphylococcus aureus; details: for Sensitization fold, MRSA towards rifampicin: compound at 10 μg/ml
Protocol: as §2, with “Bacteria” for “FIG. 22A is a bar graph showing that Compound M-1 sensitizes B. subtilis towards rifampicin as described in Example 13. Bacteria”
Compound M-1 (2.7 μg/ml) sensitizes MRSA towards existing antibiotics such as rifampicin (32-fold) (FIG. 22B) and trovafloxacin (16-fold). Rifampicin is the first line of defense against MRSA and many MRSA stains grow resistance to rifampicin through overexpression of efflux pump and other mechanisms. Combined with Compound M-1, rifampicin can be used more effectively against MRSA.

E. coli = assay: Sensitization of E. coli to erythromycin (sensitization fold from IC90, OD600, 20 h); format: cell-based, Escherichia coli; details: general statement on amidine substitution or ring restraint
Protocol: E. coli bacteria were cultured in Miller's broth at 37° C. overnight prior to treatment. B. subtilis bacteria were cultured in nutrient broth at 37° C. overnight prior to treatment. […] Bacterial density was measured based on OD600.

H9c2 cells = assay: Cytotoxicity in H9c2 cells (CCK-8, 24 h); format: cell-based
Protocol: as §1

wild type B. subtilis [4] = assay: Sensitization of B. subtilis toward antibiotics (MIC, OD600, 24 h); format: cell-based, Bacillus subtilis; details: compound at 5 μg/ml
B. subtilis = B. subtilis viability with antibiotic in absence or presence of compound (OD600, 20 h); format: cell-based, Bacillus subtilis; details: M-1 12.5 or 6 μM; A-2 6 or 12.5 μM; A-8; 20 h
Protocol: Bacterial viability was then determined by measuring density using OD600. […] B. subtilis was also cultured with either novobiocin or tetracycline at varying concentrations either in the absence or presence of compound M-1 (12.5 μM) for 20 hours. Bacterial viability was subsequently determined by measuring density using OD600.
Bacterial viability was then determined by measuring density using OD600.

[5] = antibiotic plus Compound C 5 μg/ml

With Cc1cc(OCc2ccc(C(=N)N)cc2)cc(OCc2ccc(C(=N)N)cc2)c1 [drawing 877] the “3T3 cytotoxicity at 100 μM ("100 μM result in x%")” value (3T3 cells) was 100 UM result in 10%.
For COc1cc(C(=N)N)ccc1OCc1cc(COc2ccc(C(=N)N)cc2OC)cc(C(C)(C)C)c1 [drawing 882], the “HEK293 cytotoxicity at 100 μM ("100 μM result in x%")” value (HEK293 cells) was 100 μM result in 20%.
With Cc1cc(COc2cccc(C(=N)N)c2)cc(COc2cccc(C(=N)N)c2)c1 [drawing 884] the “HEK293 cytotoxicity at 100 μM ("100 μM result in x%")” value (HEK293 cells) was 100 μM result in 20%.
In the case of CCCCCc1cc(OCc2ccc(C(=N)N)cc2)cc(OCc2ccc(C(=N)N)cc2)c1 [Compound E-20, 1,3-Bis {(4-amidino)-benzyloxy}-5-(n-pentyl)benzene dihydrochloride], the “Binding to lipid A (decrease of Dansyl-PMBN fluorescent intensity)” value [1] was “bind to lipid A”.
For N[C@@H]1[C@H]2CN(c3nc4c(cc3F)c(=O)c(C(=O)O)cn4-c3ccc(F)cc3F)C[C@@H]12 [Trovafloxacin, trovafloxacin], the “MRSA share of the bacteria population (E. coli + MRSA)” value (E. coli and MRSA) was 78%, the MIC (wild-type E. coli; 24 h, antibiotic alone, wild-type E. coli, read-out: MIC of AB only) was 0.05 µg/mL and the MIC (wild-type E. coli; antibiotic alone, wild-type E. coli, read-out: MIC of AB only) was 0.05 µg/mL. For the same compound, the MIC (wild-type E. coli; read-out: MIC of AB with Compound C (5 μg/ml), antibiotic plus Compound C 5 μg/ml, wild-type E. coli) was 0.0015 µg/mL, the FIC (wild-type E. coli; fractional inhibitory concentration, antibiotic plus Compound C 5 μg/ml, wild-type E. coli) was 0.13 and the MIC ([2]; Escherichia coli, antibiotic alone, read-out: MIC of AB only) was 0.025 µg/mL. The Sensitization fold ([2]; MIC of antibiotic only / MIC with Compound C 5 μg/ml) was 32, the FIC [2, 5] was 0.13 and the “MIC of AB with Compound C (5 μg/ml)” value [2, 5] was 0.0008 µg/mL.
For Cc1cc(COc2ccc(C3=NCCCN3)cc2)cc(COc2ccc(C3=NCCCN3)cc2)c1 [Compound B-21, 2,2′-((((5-Methyl-1,3-phenylene)bis(methylene))bis(oxy))bis(4,1-phenylene))bis(1,4,5,6-tetrahydropyrimidine) dihydrochloride], the “Sensitization effect on B. subtilis” value (wild type B. subtilis [3]) was “no effect”, the “Sensitization fold, MRSA towards rifampicin” value (MRSA) was 16 fold and the “Ability to sensitize Gram-negative bacteria (while preserving ability to sensitize some Gram-positive bacteria)” value (from here on “Ability”) (E. coli) was “greatly decrease, or even abolish”.
With COc1cc(C(=N)N)ccc1OCc1cc(C)cc(COc2ccc(C(=N)N)cc2OC)c1 [drawing 871] the “HEK293 cytotoxicity at 100 μM ("100 μM result in x%")” value (HEK293 cells) was 100 μM result in 10%.
In the case of CCCNC(=N)c1ccc(COc2cc(C)cc(OCc3ccc(C(=N)NCCC)cc3)c2)cc1 [Compound E-13, 1,3-Bis {(4-n-propylamidino)-benzyloxy}-5-methylbenzene dihydrochloride], the “Sensitization effect on B. subtilis” value (wild type B. subtilis [3]) was “no effect”, the “Sensitization fold, MRSA towards rifampicin” value (MRSA) was 16 fold and the “Ability” value (E. coli) was “greatly decrease, or even abolish”.
In the case of Cc1cc(COc2ccc(CN)cc2)cc(COc2ccc(CN)cc2)c1 [drawing 874], the “HEK293 CC^50” value (HEK293 cells) was 25 µM and the “3T3 CC^50” value (3T3 cells) was 25 µM.
For Cc1cc(COc2ccc(C3=NCCN3)cc2)cc(COc2ccc(C3=NCCN3)cc2)c1 [drawing 864], the “H9c2 CC^50” value (H9c2 cells) was 25 µM and the “3T3 CC^50” value (3T3 cells) was 25 µM.
For N=C(N)c1ccc(OCc2cc(COc3ccc(C(=N)N)cc3)cc(COc3ccc(C(=N)N)cc3)c2)cc1 [drawing 875], the “HEK293 cytotoxicity at 100 μM ("100 μM result in x%")” value (HEK293 cells) was 100 μM result in 10%.
For Cc1cc(COc2ccc(C(=N)N)cc2)cc(COc2ccc(C(=N)N)cc2)c1 [drawing 863], the “H9c2 CC^50” value (H9c2 cells) was 50 µM, the “HEK293 cytotoxicity at 100 μM ("100 μM result in x%")” value (HEK293 cells) was 100 μM result in 20% and the “3T3 cytotoxicity at 100 μM ("100 μM result in x%")” value (3T3 cells) was 100 μM result in 20%.
For Cc1cc(COc2ccc(CN)cc2)cc(COc2ccc(CN)cc2)c1 [Compound E-11, 1,3-Bis {(4-methanamine)-phenoxymethyl}-5-methylbenzene dihydrochloride], the “Sensitization effect on MRSA” value (MRSA; compound at 5 μg/ml) was “no effect” and the “Sensitization fold, B. subtilis towards erythromycin” value (wild type B. subtilis [4]) was 32 fold.
In the case of Cc1cc(COc2ccc(C3=NCCN3)cc2)cc(COc2ccc(C3=NCCN3)cc2)c1 [Compound A-2, 2,2′-((((5-Methyl-1,3-phenylene)bis(methylene))bis(oxy))bis(4,1-phenylene))bis(4,5-dihydro-1H-imidazole) Dihydrochloride], the “Ability” value (E. coli) was “greatly decrease, or even abolish” and the “B. subtilis growth inhibition, compound in combination with erythromycin vs erythromycin alone” value (B. subtilis) was “significant bacterial growth inhibition”.
In the case of Cc1cc(CCc2ccc(C(=N)N)cc2)cc(CCc2ccc(C(=N)N)cc2)c1 [drawing 876], the “HEK293 CC^50” value (HEK293 cells) was 50 µM and the “3T3 CC^50” value (3T3 cells) was 50 µM.
For N=C(N)c1ccc(OCc2cccc(COc3ccc(C(=N)N)cc3F)c2F)c(F)c1 [drawing 854], the “H9c2 CC^50” value (H9c2 cells) was 50 µM, the “HEK293 CC^50” value (HEK293 cells) was 100 µM and the “3T3 cytotoxicity at 100 μM ("100 μM result in x%")” value (3T3 cells) was 100 μM result in 30%.
In the case of N=C(N)c1ccc(OCc2ccc(COc3ccc(C(=N)N)cc3)cc2)cc1 [drawing 869], the “H9c2 CC^50” value (H9c2 cells) was 50 µM, the “HEK293 cytotoxicity at 100 μM ("100 μM result in x%")” value (HEK293 cells) was 100 μM result in 30% and the “3T3 cytotoxicity at 100 μM ("100 μM result in x%")” value (3T3 cells) was 100 result in 10%.

Source: US12595251B2, “Amidines and amidine analogs for the treatment of bacterial infections and potentiation antibiotics” (GEORGIA STATE UNIVERSITY RESEARCH FOUNDATION, INC., priority 2018, dated 2026)
